# Biological target: T1, human vasopressin V1b receptor (Homo sapiens, UniProt P47901)
# T1 construct: expressed in transfected cells; host or cells: CHO-K1 (cell line hV1b_3H2_CHO), membrane preparation
# T1 sequence (P47901 1-424): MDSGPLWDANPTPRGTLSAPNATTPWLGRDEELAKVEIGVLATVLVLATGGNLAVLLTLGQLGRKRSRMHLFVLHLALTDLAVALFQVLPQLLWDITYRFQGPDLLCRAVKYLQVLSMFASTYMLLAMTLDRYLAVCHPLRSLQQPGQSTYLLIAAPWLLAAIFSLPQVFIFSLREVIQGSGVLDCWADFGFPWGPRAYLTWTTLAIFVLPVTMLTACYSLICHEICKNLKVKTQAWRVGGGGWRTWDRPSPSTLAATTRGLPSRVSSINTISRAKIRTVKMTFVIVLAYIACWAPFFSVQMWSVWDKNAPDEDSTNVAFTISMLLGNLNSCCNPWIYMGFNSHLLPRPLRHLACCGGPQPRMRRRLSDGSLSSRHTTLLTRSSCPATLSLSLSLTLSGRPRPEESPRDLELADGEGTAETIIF
# Experiment: Vasopressin V1b receptor binding test
# Details: membranes of CHO-K1 cells, displacement of 1.5 nM 3H-AVP
# How it was run: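 Radioligand competition binding to human V1b receptor membranes in 50 mM Tris, 10 mM MgCl2, 0.1% BSA, pH 7.4; nonspecific binding with 1 μM AVP.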
row,Structure (SMILES),Ki [nM]
1,"CCOc1ccc(OC)cc1C1(N2CCN(c3ccncc3)CC2)C(=O)N(S(=O)(=O)c2ccc(OC)cc2)c2ccc(C#N)cc21 (stereo not shown) [Example 62, 5-Cyano-3-(2-ethoxy-5-methoxyphenyl)-1-(4-methoxy-benzenesulphonyl)-3-(4-pyridin-4-yl-piperazin-1-yl)-2,3-dihydro-1H-indol-2-one]",< 50
2,"CCOc1c(OC)cccc1C1(N2CCN(c3ccnc(C(C)C)c3)CC2)C(=O)N(S(=O)(=O)c2ccc(OC)cc2OC)c2ccc(C#N)cc21 (stereo not shown) [Example 110, 5-Cyano-1-(2,4-dimethoxybenzenesulphonyl)-3-(2-ethoxy-3-methoxyphenyl)-3-[4-(2-isopropylpyridin-4-yl)-piperazin-1-yl]-2,3-dihydro-1H-indol-2-one×trifluoroacetic acid]",< 50
3,"CCOc1cc(OC)ccc1C1(N2CCN(c3ccnc(C(C)C)c3)CC2)C(=O)N(S(=O)(=O)c2ccc(OC)cc2OC)c2ccc(C#N)cc21 (stereo not shown) [Example 111, 5-Cyano-1-(2,4-dimethoxybenzenesulphonyl)-3-(2-ethoxy-4-methoxyphenyl)-3-[4-(2-isopropylpyridin-4-yl)-piperazin-1-yl]-2,3-dihydro-1H-indol-2-one×trifluoroacetic acid]",< 50
4,"CCOc1ccccc1C1(N2CCN(c3ccncc3)CC2)C(=O)N(S(=O)(=O)c2ccc(OC(C)C)cc2)c2ccc(C#N)cc21 (stereo not shown) [Example 113, 5-Cyano-3-(2-ethoxyphenyl)-1-(4-isopropoxybenzenesulphonyl)-3-(4-pyridin-4-yl-piperazin-1-yl)-2,3-dihydro-1H-indol-2-one×trifluoroacetic acid]",50 to 500

# The next lines start with the values.
row,Ki [nM],Structure (SMILES)
1,< 50,"COc1ccc(S(=O)(=O)N2C(=O)C(c3cc(OC)ccc3OC)(N3CCN(c4ccncc4)CC3)c3cc(C#N)ccc32)cc1 (stereo not shown) [Example 63, 5-Cyano-3-(2,5-dimethoxyphenyl)-1-(4-methoxy-benzenesulphonyl)-3-(4-pyridin-4-yl-piperazin-1-yl)-2,3-dihydro-1H-indol-2-one]"
2,50 to 500,"CCOc1ccccc1C1(N2CCN(c3ccncc3)CC2)C(=O)N(S(=O)(=O)c2ccc(C)cc2F)c2ccc(C#N)cc21 (stereo not shown) [Example 115, 5-Cyano-3-(2-ethoxyphenyl)-1-(2-fluoro-4-methylbenzenesulphonyl)-3-(4-pyridin-4-yl-piperazin-1-yl)-2,3-dihydro-1H-indol-2-one]"
3,< 50,"CCOc1ccc(OC)cc1C1(NCCNc2ccncc2)C(=O)N(S(=O)(=O)c2ccc(OC)cc2OC)c2ccc(C#N)cc21 (stereo not shown) [Example 122, 5-Cyano-1-(2,4-dimethoxybenzenesulphonyl)-3-(2-ethoxy-5-methoxyphenyl)-3-[2-(pyridin-4-ylamino)-ethylamino]-2,3-dihydro-1H-indol-2-one]"

# Reference: US8431567B2 (Abbott GmbH & Co. KG, priority 2006, dated 2013)
